Results as given in the kinase profiling compilation of Christmann-Franck et al. (2016).

Legend:
Assay in all cases: radiometric filter-binding kinase assay, Kinase HotSpot
Settings in all cases: compound 0.5 µM; ATP 10 µM
NEK11 (human) = NEK11 (human) (UniProt Q8NG66)
FGFR3 (human) = FGFR3 (human) (UniProt P22607)
MAP4K5 (human) = MAP4K5 (human) (UniProt Q9Y4K4)
[1] = target: TYK2 JH1 catalytic (human) (UniProt P29597)
MAPK8 (human) = MAPK8 (human) (UniProt P45983)
ITK (human) = ITK (human) (UniProt Q08881)
AKT1 (human) = AKT1 (human) (UniProt P31749)
NEK2 (human) = NEK2 (human) (UniProt P51955)
MAPK14 (human) = MAPK14 (human) (UniProt Q16539)
STK24 (human) = STK24 (human) (UniProt Q9Y6E0)
CLK1 (human) = CLK1 (human) (UniProt P49759)
MINK1 (human) = MINK1 (human) (UniProt Q8N4C8)
MERTK (human) = MERTK (human) (UniProt Q12866)
DYRK2 (human) = DYRK2 (human) (UniProt Q92630)
DYRK2 (human), sequence (Q92630 whole entry, looked up): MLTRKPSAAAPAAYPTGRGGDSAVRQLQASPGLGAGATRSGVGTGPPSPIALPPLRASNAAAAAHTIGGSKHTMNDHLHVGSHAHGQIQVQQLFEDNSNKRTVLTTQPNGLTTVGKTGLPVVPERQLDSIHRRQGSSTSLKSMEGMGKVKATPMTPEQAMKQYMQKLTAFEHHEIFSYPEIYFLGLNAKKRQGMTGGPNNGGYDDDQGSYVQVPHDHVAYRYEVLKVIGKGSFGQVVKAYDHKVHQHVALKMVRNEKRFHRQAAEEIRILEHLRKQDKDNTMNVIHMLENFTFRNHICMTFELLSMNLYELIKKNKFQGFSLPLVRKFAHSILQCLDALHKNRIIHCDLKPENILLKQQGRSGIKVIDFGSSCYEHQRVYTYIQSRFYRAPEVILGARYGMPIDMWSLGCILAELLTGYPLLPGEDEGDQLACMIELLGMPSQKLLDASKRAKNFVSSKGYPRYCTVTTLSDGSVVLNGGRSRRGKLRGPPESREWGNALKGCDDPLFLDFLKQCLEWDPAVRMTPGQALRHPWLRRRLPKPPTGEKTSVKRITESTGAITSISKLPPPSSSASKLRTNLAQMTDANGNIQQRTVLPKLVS

PAK4 (human) = PAK4 (human) (UniProt O96013)
CDK2 CCNA2 (human) = CDK2 CCNA2 (human) (UniProt P24941+P20248)
CDK2 CCNA2 (human), sequence (P20248 whole entry, looked up, other chains not shown): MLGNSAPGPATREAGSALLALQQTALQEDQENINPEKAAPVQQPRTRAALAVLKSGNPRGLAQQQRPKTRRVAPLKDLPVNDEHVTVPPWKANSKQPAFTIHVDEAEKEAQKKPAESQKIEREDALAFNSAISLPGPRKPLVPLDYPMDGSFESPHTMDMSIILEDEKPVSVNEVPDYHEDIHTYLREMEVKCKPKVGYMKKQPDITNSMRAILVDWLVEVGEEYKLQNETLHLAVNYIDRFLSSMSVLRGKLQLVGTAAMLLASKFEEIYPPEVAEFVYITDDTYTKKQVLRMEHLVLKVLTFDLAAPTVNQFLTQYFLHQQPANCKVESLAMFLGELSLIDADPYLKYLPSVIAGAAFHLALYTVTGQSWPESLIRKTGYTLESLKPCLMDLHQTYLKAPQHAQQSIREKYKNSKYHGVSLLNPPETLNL

FYN (human) = FYN (human) (UniProt P06241)
NUAK1 (human) = NUAK1 (human) (UniProt O60285)
NUAK1 (human), sequence (O60285 whole entry, looked up): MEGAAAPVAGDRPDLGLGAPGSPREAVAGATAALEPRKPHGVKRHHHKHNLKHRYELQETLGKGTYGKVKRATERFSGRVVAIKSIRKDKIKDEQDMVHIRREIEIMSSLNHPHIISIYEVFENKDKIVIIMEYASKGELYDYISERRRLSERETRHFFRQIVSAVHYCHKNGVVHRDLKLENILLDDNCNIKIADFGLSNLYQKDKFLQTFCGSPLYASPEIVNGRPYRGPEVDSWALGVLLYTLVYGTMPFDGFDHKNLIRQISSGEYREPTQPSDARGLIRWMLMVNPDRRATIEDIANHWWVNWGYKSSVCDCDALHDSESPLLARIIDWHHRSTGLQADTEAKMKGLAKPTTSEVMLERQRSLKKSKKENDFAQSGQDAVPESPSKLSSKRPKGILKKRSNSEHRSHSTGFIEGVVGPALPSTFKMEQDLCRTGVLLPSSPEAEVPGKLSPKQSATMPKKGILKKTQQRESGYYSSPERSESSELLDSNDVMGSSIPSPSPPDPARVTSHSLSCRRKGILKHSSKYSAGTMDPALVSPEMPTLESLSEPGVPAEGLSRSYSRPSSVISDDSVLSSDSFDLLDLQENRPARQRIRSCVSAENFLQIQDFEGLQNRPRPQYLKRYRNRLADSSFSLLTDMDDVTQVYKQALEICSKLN

CAMK2A (human) = CAMK2A (human) (UniProt Q9UQM7)
[2] = tested on: FLT4 (human), P35916 [Q890H]
MAPK3 (human) = MAPK3 (human) (UniProt P27361)
STK10 (human) = STK10 (human) (UniProt O94804)
STK25 (human) = STK25 (human) (UniProt O00506)
STK25 (human), sequence (O00506 whole entry, looked up): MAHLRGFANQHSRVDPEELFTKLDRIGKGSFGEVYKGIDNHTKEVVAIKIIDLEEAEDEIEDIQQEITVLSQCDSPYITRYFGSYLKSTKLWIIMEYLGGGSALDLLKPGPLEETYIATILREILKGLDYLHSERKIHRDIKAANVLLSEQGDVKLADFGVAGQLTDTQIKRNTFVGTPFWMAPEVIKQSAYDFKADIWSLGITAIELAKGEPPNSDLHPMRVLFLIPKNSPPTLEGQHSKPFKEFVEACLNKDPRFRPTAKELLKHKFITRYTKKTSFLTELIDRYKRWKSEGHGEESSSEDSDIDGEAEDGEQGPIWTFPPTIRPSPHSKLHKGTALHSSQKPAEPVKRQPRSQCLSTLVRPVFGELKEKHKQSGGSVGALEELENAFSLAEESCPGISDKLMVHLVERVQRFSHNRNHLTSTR

DYRK4 (human) = DYRK4 (human) (UniProt Q9NR20)
FRK (human) = FRK (human) (UniProt P42685)
FRK (human), sequence (P42685 whole entry, looked up): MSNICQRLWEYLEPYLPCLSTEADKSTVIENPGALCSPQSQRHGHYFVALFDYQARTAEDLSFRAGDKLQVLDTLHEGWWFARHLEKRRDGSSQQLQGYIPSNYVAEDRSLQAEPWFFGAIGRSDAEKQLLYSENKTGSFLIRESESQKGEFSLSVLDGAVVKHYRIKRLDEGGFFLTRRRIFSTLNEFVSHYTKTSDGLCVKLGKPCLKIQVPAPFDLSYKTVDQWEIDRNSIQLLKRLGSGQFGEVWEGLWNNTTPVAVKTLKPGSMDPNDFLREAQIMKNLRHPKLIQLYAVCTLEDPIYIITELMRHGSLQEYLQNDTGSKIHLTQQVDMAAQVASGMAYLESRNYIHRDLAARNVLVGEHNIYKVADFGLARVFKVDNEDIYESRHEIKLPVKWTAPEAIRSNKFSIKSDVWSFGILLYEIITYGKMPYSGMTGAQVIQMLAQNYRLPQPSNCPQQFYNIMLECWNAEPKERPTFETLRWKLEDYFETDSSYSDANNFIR

MAP3K5 (human) = MAP3K5 (human) (UniProt Q99683)
ZAP70 (human) = ZAP70 (human) (UniProt P43403)
ROCK2 (human) = ROCK2 (human) (UniProt O75116)
FGFR1 (human) = FGFR1 (human) (UniProt P11362)
[3] = tested on: MAP2K6 (human), P52564 [S207E/T211E]
RPS6KA6 KD1 KD2 (human) = RPS6KA6 KD1 KD2 (human) (UniProt Q9UK32)
PTK2B (human) = PTK2B (human) (UniProt Q14289)
PTK2B (human), sequence (Q14289 whole entry, looked up): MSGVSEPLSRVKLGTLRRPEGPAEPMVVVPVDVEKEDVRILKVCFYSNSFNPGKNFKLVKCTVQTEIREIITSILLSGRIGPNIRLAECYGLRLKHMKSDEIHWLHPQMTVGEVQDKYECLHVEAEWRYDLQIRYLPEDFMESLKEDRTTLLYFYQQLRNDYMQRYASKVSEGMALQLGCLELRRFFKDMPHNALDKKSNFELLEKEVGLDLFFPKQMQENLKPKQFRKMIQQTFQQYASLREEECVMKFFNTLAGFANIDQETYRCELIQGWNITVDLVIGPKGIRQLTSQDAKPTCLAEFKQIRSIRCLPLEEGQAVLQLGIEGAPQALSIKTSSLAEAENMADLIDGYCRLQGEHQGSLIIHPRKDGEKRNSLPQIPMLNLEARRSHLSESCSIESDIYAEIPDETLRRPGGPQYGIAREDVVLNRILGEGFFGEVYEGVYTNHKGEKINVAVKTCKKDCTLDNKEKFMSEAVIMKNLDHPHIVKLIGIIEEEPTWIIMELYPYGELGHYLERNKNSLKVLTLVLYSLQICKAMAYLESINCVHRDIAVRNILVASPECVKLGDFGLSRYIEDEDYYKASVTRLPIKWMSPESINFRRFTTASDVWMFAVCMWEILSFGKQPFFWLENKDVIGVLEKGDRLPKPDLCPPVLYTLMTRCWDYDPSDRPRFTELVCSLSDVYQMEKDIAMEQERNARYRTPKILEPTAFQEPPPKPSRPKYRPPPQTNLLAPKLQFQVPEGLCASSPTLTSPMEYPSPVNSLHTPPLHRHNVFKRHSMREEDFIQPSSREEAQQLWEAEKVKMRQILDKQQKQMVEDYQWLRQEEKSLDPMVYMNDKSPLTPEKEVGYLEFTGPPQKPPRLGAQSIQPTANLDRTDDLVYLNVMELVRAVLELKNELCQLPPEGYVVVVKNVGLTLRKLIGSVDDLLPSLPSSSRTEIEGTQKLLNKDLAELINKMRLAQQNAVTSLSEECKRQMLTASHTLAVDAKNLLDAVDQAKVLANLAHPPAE

CAMK2B (human) = CAMK2B (human) (UniProt Q13554)
ACVRL1 (human) = ACVRL1 (human) (UniProt P37023)
DSTYK (human) = DSTYK (human) (UniProt Q6XUX3)
ABL2 (human) = ABL2 (human) (UniProt P42684)
ABL2 (human), sequence (P42684 whole entry, looked up): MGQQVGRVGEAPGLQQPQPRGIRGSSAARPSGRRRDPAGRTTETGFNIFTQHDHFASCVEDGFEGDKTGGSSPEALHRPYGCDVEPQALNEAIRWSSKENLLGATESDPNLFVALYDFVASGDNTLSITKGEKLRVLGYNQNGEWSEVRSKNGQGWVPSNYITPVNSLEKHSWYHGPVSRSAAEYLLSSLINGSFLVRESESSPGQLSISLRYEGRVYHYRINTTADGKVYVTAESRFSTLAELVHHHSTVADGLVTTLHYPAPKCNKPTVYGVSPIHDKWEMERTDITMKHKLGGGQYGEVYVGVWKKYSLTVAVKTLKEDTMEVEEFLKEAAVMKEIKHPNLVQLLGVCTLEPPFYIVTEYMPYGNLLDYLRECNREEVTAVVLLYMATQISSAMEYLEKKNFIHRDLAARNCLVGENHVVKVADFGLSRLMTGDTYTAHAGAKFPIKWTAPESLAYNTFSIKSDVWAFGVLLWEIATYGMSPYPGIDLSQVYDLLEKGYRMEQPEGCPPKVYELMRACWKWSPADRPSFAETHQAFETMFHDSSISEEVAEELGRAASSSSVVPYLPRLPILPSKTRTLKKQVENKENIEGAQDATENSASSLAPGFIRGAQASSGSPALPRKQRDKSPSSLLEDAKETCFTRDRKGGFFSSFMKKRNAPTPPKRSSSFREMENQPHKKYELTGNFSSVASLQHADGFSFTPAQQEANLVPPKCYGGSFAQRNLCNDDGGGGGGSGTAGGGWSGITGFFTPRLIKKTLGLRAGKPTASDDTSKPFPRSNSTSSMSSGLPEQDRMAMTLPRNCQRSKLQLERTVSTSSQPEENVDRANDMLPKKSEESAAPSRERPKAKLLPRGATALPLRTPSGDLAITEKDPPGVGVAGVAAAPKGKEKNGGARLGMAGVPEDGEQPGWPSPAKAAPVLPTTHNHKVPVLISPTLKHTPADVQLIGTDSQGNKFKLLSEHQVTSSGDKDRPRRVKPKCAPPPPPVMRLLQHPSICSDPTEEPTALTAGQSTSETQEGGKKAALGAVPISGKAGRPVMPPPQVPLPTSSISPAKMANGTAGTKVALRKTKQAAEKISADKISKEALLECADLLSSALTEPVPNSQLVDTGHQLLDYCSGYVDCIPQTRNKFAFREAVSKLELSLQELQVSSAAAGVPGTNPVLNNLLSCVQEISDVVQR

PAK7 (human) = PAK7 (human) (UniProt Q9P286)
BRSK1 (human) = BRSK1 (human) (UniProt Q8TDC3)
GRK7 (human) = GRK7 (human) (UniProt Q8WTQ7)
STK11 (human) = STK11 (human) (UniProt Q15831)
PHKG1 (human) = PHKG1 (human) (UniProt Q16816)
WNK2 (human) = WNK2 (human) (UniProt Q9Y3S1)

CC(C)(C)c1cc(C=C(C#N)C#N)cc(Br)c1O gave a residual activity (NEK11 (human)) of 87%, a residual activity (FGFR3 (human)) of 92.8% and a residual activity (MAP4K5 (human)) of 95.8%. The residual activity [1] was 61.3%, the residual activity (MAPK8 (human)) was 90.4% and the residual activity (ITK (human)) was 98.4%. The residual activity (AKT1 (human)) was 108%, the residual activity (NEK2 (human)) was 96% and the residual activity (MAPK14 (human)) was 98.3%. The residual activity (STK24 (human)) was 96.3%, the residual activity (CLK1 (human)) was 112% and the residual activity (MINK1 (human)) was 111%. It also gave a residual activity (MERTK (human)) of 97.3%, a residual activity (DYRK2 (human)) of 104% and a residual activity (PAK4 (human)) of 124%. For the same compound, the residual activity (CDK2 CCNA2 (human)) was 90.7%, the residual activity (FYN (human)) was 67.2% and the residual activity (NUAK1 (human)) was 95.4%. For the same compound, the residual activity (CAMK2A (human)) was 104%, the residual activity [2] was 102% and the residual activity (MAPK3 (human)) was 105%. The residual activity (STK10 (human)) was 95.4%, the residual activity (STK25 (human)) was 102% and the residual activity (DYRK4 (human)) was 98.2%. The residual activity (FRK (human)) was 99.3%, the residual activity (MAP3K5 (human)) was 100% and the residual activity (ZAP70 (human)) was 91.6%. The residual activity (ROCK2 (human)) was 95.6%, the residual activity (FGFR1 (human)) was 95.9% and the residual activity [3] was 107%. The residual activity (RPS6KA6 KD1 KD2 (human)) was 101%, the residual activity (PTK2B (human)) was 99.3% and the residual activity (CAMK2B (human)) was 99.3%. The residual activity (ACVRL1 (human)) was 105%, the residual activity (DSTYK (human)) was 105% and the residual activity (ABL2 (human)) was 57.1%. The residual activity (PAK7 (human)) was 119%, the residual activity (BRSK1 (human)) was 94% and the residual activity (GRK7 (human)) was 107%. For the same compound, the residual activity (STK11 (human)) was 85.2%, the residual activity (PHKG1 (human)) was 96.7% and the residual activity (WNK2 (human)) was 126%.
COc1cc2ncnc(Nc3ccc(OCc4ccccc4)cc3)c2cc1OC was tested, and the residual activity (NEK11 (human)) was 90.4%, the residual activity (FGFR3 (human)) was 102% and the residual activity (MAP4K5 (human)) was 65.4%. It also gave a residual activity [1] of 103%, a residual activity (MAPK8 (human)) of 102% and a residual activity (ITK (human)) of 96.2%. It also gave a residual activity (AKT1 (human)) of 103%, a residual activity (NEK2 (human)) of 107% and a residual activity (MAPK14 (human)) of 101%. The residual activity (STK24 (human)) was 104%, the residual activity (CLK1 (human)) was 111% and the residual activity (MINK1 (human)) was 94.3%. It also gave a residual activity (MERTK (human)) of 19.5%, a residual activity (DYRK2 (human)) of 111% and a residual activity (PAK4 (human)) of 103%. For the same compound, the residual activity (CDK2 CCNA2 (human)) was 100%, the residual activity (FYN (human)) was 86.3% and the residual activity (NUAK1 (human)) was 94.8%. The residual activity (CAMK2A (human)) was 107%, the residual activity [2] was 98.9% and the residual activity (MAPK3 (human)) was 98.4%. The residual activity (STK10 (human)) was 68.2%, the residual activity (STK25 (human)) was 93.4% and the residual activity (DYRK4 (human)) was 97.6%. The residual activity (FRK (human)) was 104%, the residual activity (MAP3K5 (human)) was 97.8% and the residual activity (ZAP70 (human)) was 87.6%. It also gave a residual activity (ROCK2 (human)) of 96%, a residual activity (FGFR1 (human)) of 91.3% and a residual activity [3] of 109%. The residual activity (RPS6KA6 KD1 KD2 (human)) was 95.9%, the residual activity (PTK2B (human)) was 99.8% and the residual activity (CAMK2B (human)) was 105%. The residual activity (ACVRL1 (human)) was 102%, the residual activity (DSTYK (human)) was 95.9% and the residual activity (ABL2 (human)) was 101%. It also gave a residual activity (PAK7 (human)) of 99.6%, a residual activity (BRSK1 (human)) of 103% and a residual activity (GRK7 (human)) of 101%. It also gave a residual activity (STK11 (human)) of 102%, a residual activity (PHKG1 (human)) of 100% and a residual activity (WNK2 (human)) of 91.6%.
In the case of COc1ccc(C(=O)Nc2sc3c(c2C(N)=O)CCCC3)cc1OC, the residual activity (NEK11 (human)) is reported as 102%, the residual activity (FGFR3 (human)) is reported as 98.3% and the residual activity (MAP4K5 (human)) is reported as 94.3%. The residual activity [1] was 117%, the residual activity (MAPK8 (human)) was 94.7% and the residual activity (ITK (human)) was 99.6%. For the same compound, the residual activity (AKT1 (human)) was 99.7%, the residual activity (NEK2 (human)) was 95.4% and the residual activity (MAPK14 (human)) was 97.5%. For the same compound, the residual activity (STK24 (human)) was 93.9%, the residual activity (CLK1 (human)) was 96.9% and the residual activity (MINK1 (human)) was 85%. It also gave a residual activity (MERTK (human)) of 85.4%, a residual activity (DYRK2 (human)) of 92% and a residual activity (PAK4 (human)) of 95.9%. The residual activity (CDK2 CCNA2 (human)) was 103%, the residual activity (FYN (human)) was 93.9% and the residual activity (NUAK1 (human)) was 81.8%. The residual activity (CAMK2A (human)) was 100%, the residual activity [2] was 110% and the residual activity (MAPK3 (human)) was 95.2%. It also gave a residual activity (STK10 (human)) of 93.9%, a residual activity (STK25 (human)) of 91.7% and a residual activity (DYRK4 (human)) of 98.5%. For the same compound, the residual activity (FRK (human)) was 88.8%, the residual activity (MAP3K5 (human)) was 94.8% and the residual activity (ZAP70 (human)) was 95.6%. The residual activity (ROCK2 (human)) was 92.3%, the residual activity (FGFR1 (human)) was 94.8% and the residual activity [3] was 114%. It also gave a residual activity (RPS6KA6 KD1 KD2 (human)) of 98.5%, a residual activity (PTK2B (human)) of 95.5% and a residual activity (CAMK2B (human)) of 99.9%. It also gave a residual activity (ACVRL1 (human)) of 110%, a residual activity (DSTYK (human)) of 92.2% and a residual activity (ABL2 (human)) of 101%. It also gave a residual activity (PAK7 (human)) of 96.6%, a residual activity (BRSK1 (human)) of 105% and a residual activity (GRK7 (human)) of 95.5%. It also gave a residual activity (STK11 (human)) of 103%, a residual activity (PHKG1 (human)) of 94.3% and a residual activity (WNK2 (human)) of 100%.
